From patent publication US9040663B2, “Melanocortin receptor-specific peptides” (AstraZeneca AB, priority 2009, dated 2015)
Where two headings read alike, the source gives them in different places. Positions of bridges follow the written chain, without caps; N, C: chain ends. Non-standard residues stand in square brackets, D forms with d. Residues, ends and D or L forms follow the SMILES beside them. dPhe(4-CN) = N#Cc1ccc(C[C@@H](N)C(=O)O)cc1; dPhe(3-Cl) = N[C@H](Cc1cccc(Cl)c1)C(=O)O; dPhe(2-F) = N[C@H](Cc1ccccc1F)C(=O)O; Orn = NCCC[C@H](N)C(=O)O

Columns and labels:
hMC4-R [1] = biological target: T1, hMC4-R (Homo sapiens (Human), UniProt P32245); experiment: Competitive inhibition binding assay using [I125]-NDP-α-MSH, hMC4-R; settings: membranes of HEK-293 cells expressing recombinant hMC4-R, read-out: MC4-R Ki
hMC4-R [2] = biological target: T1, hMC4-R; experiment: High and low density hMC4-R functional assay (cAMP, HEK293-T-REx-MC4-R cells); format: cell-based; settings: for Emax: NDP-α-MSH = 100%, read-out: Intrinsic Activity (%)
MC1-R = experiment: Competitive inhibition binding assay using [I125]-NDP-α-MSH, MC1-R; settings: membranes of B-16 mouse melanoma cells (endogenous MC1-R), in some instances HEK-293 hMC1-R
Description: 7.1 Competitive Inhibition Assay using [I^125]-NDP-α-MSH.
A competitive inhibition binding assay was performed for exemplified peptides according to the invention using membrane homogenates prepared from HEK-293 cells that express recombinant hMC4-R, hMC3-R, or hMC5-R, and from B-16 mouse melanoma cells (containing endogenous MC1-R). In some instances, HEK-293 cells that express recombinant hMC1-R were employed. Assays were performed in 96 well GF/B Millipore multiscreen filtration plates (MAFB NOB10) pre-coated with 0.5% bovine serum albumin (Fraction V). Membrane homogenates were incubated with 0.2 nM (for hMC4-R) 0.4 nM (for MC3-R and MC5-R) or 0.1 nM (for mouse B16 MC1-R or hMC1-R) [I^125]-NDP-α-MSH (Perkin Elmer) and increasing concentrations of test peptides of the present invention in buffer containing 25 mM HEPES buffer (pH 7.5) with 100 mM NaCl, 2 mM CaCl2, 2 mM MgCl2, 0.3 mM 1,10-phenanthroline, and 0.2% bovine serum albumin. After incubation for 60 minutes at 37° C., the assay mixture was filtered and the membranes washed three times with ice-cold buffer. Filters were dried and counted in a gamma counter for bound radioactivity. […] Maximal specific binding (100%) was defined as the difference in radioactivity (cpm) bound to cell membranes in the absence and presence of 1 μM NDP-α-MSH. […] Each assay was conducted in triplicate and the actual mean values are described, with results less than 0% reported as 0%. Ki values for test peptides of the present invention were determined using Graph-Pad Prism® curve-fitting software.

[3] = 0.1 ng/mL Doxycycline (low density hMC4-R system)
[4] = 10 ng/mL Doxycycline (high density hMC4-R system)

T1 sequence (P32245 whole entry): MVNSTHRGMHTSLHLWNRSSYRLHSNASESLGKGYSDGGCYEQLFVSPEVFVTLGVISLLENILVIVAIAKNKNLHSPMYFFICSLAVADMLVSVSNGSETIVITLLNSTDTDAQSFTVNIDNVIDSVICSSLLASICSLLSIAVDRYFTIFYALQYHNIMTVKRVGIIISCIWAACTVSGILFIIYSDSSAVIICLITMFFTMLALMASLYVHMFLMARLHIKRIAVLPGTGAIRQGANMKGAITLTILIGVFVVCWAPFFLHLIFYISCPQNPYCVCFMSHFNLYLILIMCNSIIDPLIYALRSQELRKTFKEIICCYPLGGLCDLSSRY

| Ki (hMC4-R [1]) [nM] | EC50 (hMC4-R [2]; [3]) [nM] | Emax (hMC4-R [2]; [3]) [%] | EC50 (hMC4-R [2]; [4]) [nM] | Emax (hMC4-R [2]; [4]) [%] | Ki (MC1-R) [nM] | SMILES |
| --- | --- | --- | --- | --- | --- | --- |
| 3 | 0.34 | 91 | 0.045 | 96 | 1 | CC(=O)N[C@@H](CCCNC(=N)N)C(=O)N[C@H]1CCC(=O)NCCC[C@@H](C(N)=O)NC(=O)[C@H](Cc2c[nH]c3ccccc23)NC(=O)[C@H](CCCNC(=N)N)NC(=O)[C@@H](Cc2ccccc2Cl)NC(=O)[C@H](CCN)NC1=O [Example 1, Ac-Arg-cyclo(Glu-Dab-D-Phe(2-Cl)-Arg-Trp-Orn)-NH2] |
|  | 5 | 67 | 0.25 | 100 | 138 | CC(=O)N[C@@H](CCCNC(=N)N)C(=O)N[C@H]1CCC(=O)NCCC[C@@H](C(N)=O)NC(=O)[C@H](Cc2c[nH]c3ccccc23)NC(=O)[C@H](CCCNC(=N)N)NC(=O)[C@@H](Cc2ccccc2F)NC(=O)[C@H](CO)NC1=O [Example 58, Ac-Arg-cyclo(Glu-Ser-D-Phe(2-F)-Arg-Trp-Orn)-NH2] |
|  | 9 | 36 |  | 96 | 3970 | CC(=O)N[C@@H](CCCNC(=N)N)C(=O)N[C@H]1CCC(=O)NCCC[C@@H](C(=O)O)NC(=O)[C@H](Cc2c[nH]c3ccccc23)NC(=O)[C@H](CCCNC(=N)N)NC(=O)[C@@H](Cc2ccc(C#N)cc2)NC(=O)[C@H](CCC(N)=O)NC1=O [Example 86, Ac-Arg-cyclo(Glu-Gln-D-Phe(4-CN)-Arg-Trp-Orn)-OH] |
| 3 | 1 | 42 | 0.125 | 100 |  | CC(=O)N[C@@H](CCCNC(=N)N)C(=O)N[C@H]1CCC(=O)NCCC[C@@H](C(N)=O)NC(=O)[C@H](Cc2c[nH]c3ccccc23)NC(=O)[C@H](CCCNC(=N)N)NC(=O)[C@@H](Cc2cc(F)c(F)c(F)c2)NC(=O)[C@H](CC(N)=O)NC1=O [Example 95, Ac-Arg-cyclo(Glu-Asn-D-Phe(3,4,5-triF)-Arg-Trp-Orn)-NH2] |
| 2 | 2 | 24 | 0.235 | 100 |  | CC(=O)N[C@@H](CCCNC(=N)N)C(=O)N[C@H]1CCCNC(=O)CC[C@@H](C(N)=O)NC(=O)[C@H](Cc2c[nH]c3ccccc23)NC(=O)[C@H](CCCNC(=N)N)NC(=O)[C@@H](Cc2cc(F)c(F)c(F)c2)NC(=O)[C@H](CC(N)=O)NC1=O [Example 96, Ac-Arg-cyclo(Orn-Asn-D-Phe(3,4,5-triF)-Arg-Trp-Glu)-NH2] |
| 0.5 | 0.7 | 32 | 0.14 | 94 |  | CC(=O)N[C@@H](CCCNC(=N)N)C(=O)N[C@H]1CCC(=O)NCCC[C@@H](C(N)=O)NC(=O)[C@H](Cc2c[nH]c3ccccc23)NC(=O)[C@H](CCCNC(=N)N)NC(=O)[C@@H](Cc2cccc(Cl)c2)NC(=O)[C@H](CCCNC(N)=O)NC1=O [Example 99, Ac-Arg-cyclo(Glu-Arg-D-Phe(3-Cl)-Arg-Trp-Orn)-NH2] |
| 4 | 6 | 27 |  | 93 |  | CC(=O)N[C@@H](CCCNC(=N)N)C(=O)N[C@H]1CCC(=O)NCCC[C@@H](C(N)=O)NC(=O)[C@H](Cc2c[nH]c3ccccc23)NC(=O)[C@H](CCCNC(=N)N)NC(=O)[C@@H](Cc2cccc(Cl)c2)NC(=O)[C@H](CCCCN)NC1=O [Example 100, Ac-Arg-cyclo(Glu-Lys-D-Phe(3-Cl)-Arg-Trp-Orn)-NH2] (Ac-REK[dPhe(3-Cl)]RW[Orn]-NH2; lactam 2-7) |
| 1 | 0.95 | 36 | 0.14 | 93 |  | CC(=O)N[C@@H](CCCNC(=N)N)C(=O)N[C@H]1CCC(=O)NCCC[C@@H](C(N)=O)NC(=O)[C@H](Cc2c[nH]c3ccccc23)NC(=O)[C@H](CCCNC(=N)N)NC(=O)[C@@H](Cc2cccc(Cl)c2)NC(=O)[C@H](CCCN)NC1=O [Example 101, Ac-Arg-cyclo(Glu-Orn-D-Phe(3-Cl)-Arg-Trp-Orn)-NH2] |
| 4 | 1 | 32 | 0.13 | 100 |  | CC(=O)N[C@@H](CCCNC(=N)N)C(=O)N[C@H]1CC(=O)NCCCC[C@@H](C(N)=O)NC(=O)[C@H](Cc2c[nH]c3ccccc23)NC(=O)[C@H](CCCNC(=N)N)NC(=O)[C@@H](Cc2ccc(F)cc2)NC(=O)[C@@H]2CCCN2C1=O [Example 103, Ac-Arg-cyclo(Asp-Pro-D-Phe(4-F)-Arg-Trp-Lys)-NH2] |
| 7 | 3 | 35 | 0.15 | 94 |  | CC(=O)N[C@@H](CCCNC(=N)N)C(=O)N[C@H]1CCCNC(=O)CC[C@@H](C(N)=O)NC(=O)[C@H](Cc2c[nH]c3ccccc23)NC(=O)[C@H](CCCNC(=N)N)NC(=O)[C@@H](Cc2ccccc2F)NC(=O)[C@@H]2CCCN2C1=O [Example 105, Ac-Arg-cyclo(Orn-Pro-D-Phe(2-F)-Arg-Trp-Glu)-NH2] (Ac-R[Orn]P[dPhe(2-F)]RWE-NH2; lactam 2-7) |
|  |  | 3 |  | 77 | 10000 | CC(=O)N[C@@H](CCCNC(=N)N)C(=O)N[C@H]1CCC(=O)NCCC[C@@H](C(N)=O)NC(=O)[C@H](Cc2c[nH]c3ccccc23)NC(=O)[C@H](CCCNC(=N)N)NC(=O)[C@@H](Cc2ccc(C#N)cc2)NC(=O)[C@H](CC(=O)O)NC1=O [Example 106, Ac-Arg-cyclo(Glu-Asp-D-Phe(4-CN)-Arg-Trp-Orn)-NH2] (Ac-RED[dPhe(4-CN)]RW[Orn]-NH2; lactam 2-7) |
|  |  | 4 |  | 64 | 10000 | CC(=O)N[C@@H](CCCNC(=N)N)C(=O)N[C@H]1CCC(=O)NCCC[C@@H](C(=O)O)NC(=O)[C@H](Cc2c[nH]c3ccccc23)NC(=O)[C@H](CCCNC(=N)N)NC(=O)[C@@H](Cc2ccc(C#N)cc2)NC(=O)[C@H](CC(=O)O)NC1=O [Example 107, Ac-Arg-cyclo(Glu-Asp-D-Phe(4-CN)-Arg-Trp-Orn)-OH] (Ac-RED[dPhe(4-CN)]RW[Orn]-OH; lactam 2-7) |
|  |  | 3 | 9 | 59 | 10000 | CC(=O)N[C@@H](CCCNC(=N)N)C(=O)N[C@H]1CCC(=O)NCCC[C@@H](C(N)=O)NC(=O)[C@H](Cc2c[nH]c3ccccc23)NC(=O)[C@H](CCCNC(=N)N)NC(=O)[C@@H](Cc2ccc(C#N)cc2)NC(=O)[C@H](CCC(=O)O)NC1=O [Example 108, Ac-Arg-cyclo(Glu-Glu-D-Phe(4-CN)-Arg-Trp-Orn)-NH2] (Ac-REE[dPhe(4-CN)]RW[Orn]-NH2; lactam 2-7) |
| 6 |  | 81 |  | 104 |  | CC(=O)N[C@@H](CCCNC(=N)N)C(=O)N[C@H]1CCCNC(=O)CC[C@@H](C(N)=O)NC(=O)[C@H](Cc2c[nH]c3ccccc23)NC(=O)[C@H](CCCNC(=N)N)NC(=O)[C@@H](Cc2ccccc2C)NC(=O)[C@H](CCC(N)=O)NC1=O [Example 111, Ac-Arg-cyclo(Orn-Gln-D-Phe(2-Me)-Arg-Trp-Glu)-NH2] |
| 4 |  | 83 | 0.07 | 101 |  | CC(=O)N[C@@H](CCCNC(=N)N)C(=O)N[C@H]1CCCNC(=O)CC[C@@H](C(N)=O)NC(=O)[C@H](Cc2c[nH]c3ccccc23)NC(=O)[C@H](CCCNC(=N)N)NC(=O)[C@@H](Cc2ccccc2Cl)NC(=O)[C@H](CCC(N)=O)NC1=O [Example 112, Ac-Arg-cyclo(Orn-Gln-D-Phe(2-Cl)-Arg-Trp-Glu)-NH2] |
| 7 |  | 80 | 0.065 | 100 |  | CC(=O)N[C@@H](CCCNC(=N)N)C(=O)N[C@H]1CCCNC(=O)CC[C@@H](C(N)=O)NC(=O)[C@H](Cc2c[nH]c3ccccc23)NC(=O)[C@H](CCCNC(=N)N)NC(=O)[C@@H](Cc2ccccc2Cl)NC(=O)[C@H](CC(N)=O)NC1=O [Example 113, Ac-Arg-cyclo(Orn-Asn-D-Phe(2-Cl)-Arg-Trp-Glu)-NH2] |
| 7 |  | 77 | 0.095 | 104 |  | CC(=O)N[C@@H](CCCNC(=N)N)C(=O)N[C@H]1CCC(=O)NCCC[C@@H](C(N)=O)NC(=O)[C@H](Cc2c[nH]c3ccccc23)NC(=O)[C@H](CCCNC(=N)N)NC(=O)[C@@H](Cc2ccccc2C(F)(F)F)NC(=O)[C@H](CC(N)=O)NC1=O [Example 116, Ac-Arg-cyclo(Glu-Asn-D-Phe(2-CF3)-Arg-Trp-Orn)-NH2] |
| 5 | 1 | 50 |  | 112 |  | CC(=O)N[C@@H](CCCNC(=N)N)C(=O)N[C@H]1CCCNC(=O)CC[C@@H](C(N)=O)NC(=O)[C@H](Cc2c[nH]c3ccccc23)NC(=O)[C@H](CCCNC(=N)N)NC(=O)[C@@H](Cc2ccccc2C(F)(F)F)NC(=O)[C@H](CC(N)=O)NC1=O [Example 117, Ac-Arg-cyclo(Orn-Asn-D-Phe(2-CF3)-Arg-Trp-Glu)-NH2] |
